Laboratory results reported in EP1247803A2, “Indolinone compounds suitable for modulation of protein kinases” (Sugen, Inc., priority 1996, dated 1998).

Experiments:
[1] = molecular target: T1, FLK-1 receptor (Mus musculus, UniProt P35918); experiment: FLK-1 ELISA (kinase activity of the FLK-1 receptor in FLK-1/NIH3T3 cells, VEGF stimulated); type: cell-based; parameters: concentration or dose not given beside the values
T1 construct: expressed in transfected cells; host or cells: NIH3T3 C7#3
Experimental: An enzyme linked immunosorbent assay (ELISA) was conducted to measure the catalytic activity of the FLK-1 receptor and more specifically, the inhibition or activation of indolinone compounds on the catalytic activity of the FLK-1 receptor. Specifically, the following assay was conducted to measure catalytic activity of the FLK-1 receptor in FLK-1/NIH3T3 cells.
The materials and protocol for the FLK-1 ELISA assay are as described in International Patent Publication No. WO 96/40116, published December 19, 1996 by Tang et al.
Selected compounds were tested in the FLK-1 ELISA assay.
An ELISA assay was conducted to measure the kinase activity of the FLK-1 receptor and more specifically, the inhibition or activation of protein tyrosine kinase activity on the FLK-1 receptor. Specifically, the following assay was conducted to measure kinase activity of the FLK-1 receptor in FLK-1/NIH3T3 cells.
Materials. The following reagents and supplies were used: • a. […] Cappel goat anti-rabbit IgG (catalog no. 55641); • c. PBS (Gibco Catalog No. 450-1300EB); • d. TBSW Buffer (50 mM Tris (pH 7.2), 150 mM NaCl and 0.1% Tween-20); • e. Ethanolamine stock (10% ethanolamine (pH 7.0), stored at 4°C); • f. HNTG buffer (20mM HEPES buffer (pH 7.5), 150mM NaCl, 0.2% Triton X-100, and 10% glycerol); • g. EDTA (0.5 M (pH 7.0) as a 100X stock); • h. Sodium ortho vanadate (0.5 M as a 100X stock); • i. Sodium pyro phosphate (0.2M as a 100X stock); • j. NUNC 96 well V bottom polypropylene plates (Applied Scientific Catalog No. AS-72092); • k. NIH3T3 C7#3 Cells (FLK-1 expressing cells); • l. DMEM with 1X high glucose L Glutamine (catalog No. 11965-050); • m. FBS, Gibco (catalog no. 16000-028); • n. L-glutamine, Gibco (catalog no. 25030-016); • o. VEGF, PeproTech, Inc. (catalog no. 100-20)(kept as 1 µg/100 µl stock in Milli-Q dH2O and stored at -20°C; • p. Affinity purified anti-FLK-1 antiserum which can be obtained or purified as follows: • 1. Prepare a Tresyl-Activated Agarose/Flk-1-D column by incubating 10 ml of Tresyl-Activated Agarose with 20 mg of purified GST-Flk-1-D fusion protein in 100mM sodium bicarbonate (pH 9.6) buffer overnight at 4 °C. • 2. Wash the column once with PBS. • 3. Block the excess sites on the column with 2 M glycine for 2 hours at 4°C. • 4. Wash the column with PBS. • 5. Incubate the column with Rabbit anti-Flk-1D production bleed for 2 hours at 4 °C. • 6. Wash the column with PBS. • 7. Elute antiserum with 100 mM Citric Acid, pH3.0 and neutralize the eluate immediately with 2 M Tris, pH 9.0. • 8. Dialyize the eluate against PBS overnight at 4 °C with 3 changes of buffer (sample to buffer ratio is 1:100). • 9. Adjust the dialyized antiserum to 5% glycerol and store at -80 °C in small aliquotes. • q.
Protocol. The following protocol was used for conducting the assay: • 1. Coat Corning 96-well elisa plates with 1.0µg per well Cappel Anti-rabbit IgG antibody in 0.1M Na2CO3 pH 9.6. Bring final volume to 150 µl per well. Coat plates overnight at 4°C. Plates can be kept up to two weeks when stored at 4°C. • 2. Grow cells in Growth media(DMEM, supplemental with 2.0mM L-Glutamine, 10% FBS) in suitable culture dishes until confluent at 37°C, 5% CO2. • 3. Harvest cells by trypsinization and seed in Corning 25850 polystyrene 96-well roundbottom cell plates, 25.000 cells/well in 200µl of growth media. • 4. Grow cells at least one day at 37°C, 5% CO2. • 5. Wash cells with D-PBS 1X. • 6. Add 200µl/well of starvation media (DMEM, 2.0mM 1-Glutamine, 0.1% FBS). Incubate overnight at 37°C, 5% CO2. • 7. Dilute Compounds/Extracts 1:20 in polypropylene 96 well plates using starvation media. Dilute dimethylsulfoxide 1:20 for use in control wells. • 8. Remove starvation media from 96 well cell culture plates and add 162 µl of fresh starvation media to each well. • 9. Add 18µl of 1:20 diluted Compound/Extract dilution (from step 7) to each well plus the 1:20 dimethylsulfoxide dilution to the control wells (+/- VEGF), for a final dilution of 1:200 after cell stimulation. […]

[2] = tested on: MET; experiment: MET biochemical kinase assay; parameters: species or system human; concentration or dose not given beside the values
From the text: A met biochemical kinase assay may be performed for met generally as described above for other kinases by substituting that or the other kinases. In particular, ELISA plates are coated with goat anti-rabbit Fc antibodies, which are used to capture commercially available (from Santa Cruz Biotechnology) rabbit polyclonal antibodies to the cytoplasmic domain of human MET. […] The chimeric receptors, or MET, from these lysates are captured on the antibody coated plates. After washing away extraneous proteins, test compounds are added and an in vitro kinase assay is performed by addition of an appropriate kinase buffer (containing ATP, divalent metal ions, etc.). Incorporation of phosphate into the captured receptors is detected with an anti-phosphotyrosine antibody conjugate with horse radish peroxidase using TMB as a substrate for colorimetric detection.

T1 sequence (P35918 20-1345): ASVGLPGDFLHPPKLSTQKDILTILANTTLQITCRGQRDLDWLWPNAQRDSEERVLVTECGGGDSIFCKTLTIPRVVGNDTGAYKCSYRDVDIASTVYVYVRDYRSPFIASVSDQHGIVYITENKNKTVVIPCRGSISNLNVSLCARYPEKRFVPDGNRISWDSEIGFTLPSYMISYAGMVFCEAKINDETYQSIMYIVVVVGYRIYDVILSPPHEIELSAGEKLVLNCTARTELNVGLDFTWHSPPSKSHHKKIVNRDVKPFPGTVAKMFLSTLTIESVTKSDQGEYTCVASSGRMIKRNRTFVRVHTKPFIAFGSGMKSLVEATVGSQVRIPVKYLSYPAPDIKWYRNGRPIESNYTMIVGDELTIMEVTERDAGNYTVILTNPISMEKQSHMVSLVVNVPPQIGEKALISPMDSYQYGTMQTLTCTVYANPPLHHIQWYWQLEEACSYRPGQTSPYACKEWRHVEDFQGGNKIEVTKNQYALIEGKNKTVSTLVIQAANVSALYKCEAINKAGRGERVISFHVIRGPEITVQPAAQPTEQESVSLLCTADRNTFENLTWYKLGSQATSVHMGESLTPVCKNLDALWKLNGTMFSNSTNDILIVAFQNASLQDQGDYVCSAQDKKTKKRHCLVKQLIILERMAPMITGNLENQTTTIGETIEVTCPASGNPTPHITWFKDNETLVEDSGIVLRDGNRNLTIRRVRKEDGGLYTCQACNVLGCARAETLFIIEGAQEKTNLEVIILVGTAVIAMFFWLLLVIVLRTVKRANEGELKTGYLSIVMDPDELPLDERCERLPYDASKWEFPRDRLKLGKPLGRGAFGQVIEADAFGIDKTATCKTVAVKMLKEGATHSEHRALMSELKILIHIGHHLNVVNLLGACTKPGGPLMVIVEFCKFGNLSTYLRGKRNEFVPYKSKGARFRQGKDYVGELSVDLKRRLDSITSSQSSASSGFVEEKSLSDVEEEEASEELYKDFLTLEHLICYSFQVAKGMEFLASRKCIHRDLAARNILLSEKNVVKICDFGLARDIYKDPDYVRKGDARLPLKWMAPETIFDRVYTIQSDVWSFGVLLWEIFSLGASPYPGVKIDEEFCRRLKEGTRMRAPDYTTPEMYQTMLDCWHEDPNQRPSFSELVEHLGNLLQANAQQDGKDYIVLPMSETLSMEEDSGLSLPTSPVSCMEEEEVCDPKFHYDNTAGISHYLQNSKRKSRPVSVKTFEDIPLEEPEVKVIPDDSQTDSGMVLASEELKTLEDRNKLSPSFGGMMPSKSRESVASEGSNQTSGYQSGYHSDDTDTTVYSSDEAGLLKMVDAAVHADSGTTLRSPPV

SMILES	Fik Kinase %Inhibition [1] [%]	Met Kinase % Inhibition [2] [%]
Cc1ccc2occ(C=C3C(=O)Nc4ccc(CCCl)cc43)c(=O)c2c1 [10731/G06]	10.8	33.3
O=C1Nc2ccc(CCCl)cc2C1=Cc1coc2ccc([N+](=O)[O-])cc2c1=O [10731/G07]	31.6	10.9
O=C1Nc2ccc(CCCl)cc2C1=Cc1c[nH]c(=O)[nH]c1=O [10731/G08]	18.2	19.5
COc1ccc2[nH]cc(C=C3C(=O)Nc4ccc(CCCl)cc43)c2c1 [10731/G09]	13.3	4.4
CN1C(=O)C(=C2C(=O)Nc3ccc(CCCl)cc32)c2ccccc21 [10731/G10]	-9.0	10.3
O=C1Nc2c(Br)cc(Br)cc2C1=CC(c1cccs1)C(F)(F)F (stereo not drawn) [10732/A02]	-12.5	53.7
COc1c(C(C)C)cc(C=C2C(=O)Nc3c(Br)cc(Br)cc32)cc1C(C)C [10732/A03]	-9.9	37.4
CC(C)c1cc(C=C2C(=O)Nc3c(Br)cc(Br)cc32)cc(C(C)C)c1Oc1ccccc1 [10732/A04]	-14.1	34.8
COc1ccc(C=C2C(=O)Nc3c(Br)cc(Br)cc32)cc1C(C)(C)C [10732/A05]	-3.9	20.5
CC(C)(C)c1cc(C=C2C(=O)Nc3c(Br)cc(Br)cc32)ccc1OCc1ccccc1 [10732/A06]	-0.0	5.7
COc1c(Br)cc(C=C2C(=O)Nc3c(Br)cc(Br)cc32)cc1C(C)(C)C [10732/A07]	-19.8	26.1
CC(C)(C)c1cc(C=C2C(=O)Nc3c(Br)cc(Br)cc32)cc(Br)c1OCc1ccccc1 [10732/A08]	-10.0	32.7
COc1c(Cl)cc(C=C2C(=O)Nc3c(Br)cc(Br)cc32)cc1C(C)(C)C [10732/A09]	-11.2	60.3
CC(C)(C)c1cc(C=C2C(=O)Nc3c(Br)cc(Br)cc32)cc(Cl)c1OCc1ccccc1 [10732/A10]	10.2	20.3
COc1c(I)cc(C=C2C(=O)Nc3c(Br)cc(Br)cc32)cc1C(C)(C)C [10732/A11]	-0.6	65.3
O=C1Nc2ccc(I)cc2C1=CC(c1cccs1)C(F)(F)F (stereo not drawn) [10732/B02]	2.9	78.0
COc1c(C(C)C)cc(C=C2C(=O)Nc3ccc(I)cc32)cc1C(C)C [10732/B03]	8.2	58.1
CC(C)c1cc(C=C2C(=O)Nc3ccc(I)cc32)cc(C(C)C)c1Oc1ccccc1 [10732/B04]	-1.3	79.5
COc1ccc(C=C2C(=O)Nc3ccc(I)cc32)cc1C(C)(C)C [10732/B05]	2.8	71.2
CC(C)(C)c1cc(C=C2C(=O)Nc3ccc(I)cc32)ccc1OCc1ccccc1 [10732/B06]	8.1	74.3

SMILES	Fik Kinase %Inhibition [1] [%]	Met Kinase % Inhibition [2] [%]
COc1c(Br)cc(C=C2C(=O)Nc3ccc(I)cc32)cc1C(C)(C)C [10732/B07]	1.6	75.1
CC(C)(C)c1cc(C=C2C(=O)Nc3ccc(I)cc32)cc(Br)c1OCc1ccccc1 [10732/B08]	8.0	64.4
COc1c(Cl)cc(C=C2C(=O)Nc3ccc(I)cc32)cc1C(C)(C)C [10732/B09]	14.0	69.2
CC(C)(C)c1cc(C=C2C(=O)Nc3ccc(I)cc32)cc(Cl)c1OCc1ccccc1 [10732/B10]	12.1	51.5
COc1c(I)cc(C=C2C(=O)Nc3ccc(I)cc32)cc1C(C)(C)C [10732/B11]	9.0	73.7
Cc1c(Br)ccc2c1C(=CC(c1cccs1)C(F)(F)F)C(=O)N2 (stereo not drawn) [10732/C02]	11.9	40.1
COc1c(C(C)C)cc(C=C2C(=O)Nc3ccc(Br)c(C)c32)cc1C(C)C [10732/C03]	14.7	14.0
Cc1c(Br)ccc2c1C(=Cc1cc(C(C)C)c(Oc3ccccc3)c(C(C)C)c1)C(=O)N2 [10732/C04]	12.8	30.6
COc1ccc(C=C2C(=O)Nc3ccc(Br)c(C)c32)cc1C(C)(C)C [10732/C05]	11.2	18.5
Cc1c(Br)ccc2c1C(=Cc1ccc(OCc3ccccc3)c(C(C)(C)C)c1)C(=O)N2 [10732/C06]	11.8	21.6
COc1c(Br)cc(C=C2C(=O)Nc3ccc(Br)c(C)c32)cc1C(C)(C)C [10732/C07]	15.4	26.5
Cc1c(Br)ccc2c1C(=Cc1cc(Br)c(OCc3ccccc3)c(C(C)(C)C)c1)C(=O)N2 [10732/C08]	7.6	54.5
COc1c(Cl)cc(C=C2C(=O)Nc3ccc(Br)c(C)c32)cc1C(C)(C)C [10732/C09]	8.0	37.9
Cc1c(Br)ccc2c1C(=Cc1cc(Cl)c(OCc3ccccc3)c(C(C)(C)C)c1)C(=O)N2 [10732/C10]	15.1	43.0
COc1c(I)cc(C=C2C(=O)Nc3ccc(Br)c(C)c32)cc1C(C)(C)C [10732/C11]	18.2	31.9
CNS(=O)(=O)c1ccc2c(c1)C(=CC(c1cccs1)C(F)(F)F)C(=O)N2 (stereo not drawn) [10732/D02]	9.2	50.2
CNS(=O)(=O)c1ccc2c(c1)C(=Cc1cc(C(C)C)c(OC)c(C(C)C)c1)C(=O)N2 [10732/D03]	22.5	24.9
CNS(=O)(=O)c1ccc2c(c1)C(=Cc1cc(C(C)C)c(Oc3ccccc3)c(C(C)C)c1)C(=O)N2 [10732/D04]	24.6	40.7
CNS(=O)(=O)c1ccc2c(c1)C(=Cc1ccc(OC)c(C(C)(C)C)c1)C(=O)N2 [10732/D05]	15.7	30.2
